Test results as given in patent US20220220128A1, “HETEROCYCLIC COMPOUNDS AS KINASE INHIBITORS, COMPOSITIONS COMPRISING THE HETEROCYCLIC COMPOUND, AND METHODS OF USE THEREOF” (JS Innopharm (Shanghai) Ltd, priority 2019, published 2022).

What was measured:
human RET kinase = target: T1, human RET kinase (Homo sapiens, UniProt P07949); test: RET Kinase Assay (LanthaScreen TR-FRET enzymatic assay); format: biochemical; details: 7 nM RET, 23 μM ATP
T1 construct: purchased Carna 08-159
Procedure: Compounds were tested in a LanthaScreen™ time-resolved fluorescence energy transfer (TR-FRET) enzymatic assay from Invitrogen. The assay used human RET kinase (Carna 08-159). Test compounds were prepared and diluted in DMSO in 3-fold serial dilutions to 50× of the final testing concentrations. The compounds were then further diluted to 5× by the kinase reaction buffer (50 mM HEPES pH 7.5, 0.0015% Brij-35). The enzymatic reaction for compound testing was performed in a white 384-well polypropylene plate (Corning 3573) with a total reaction volume of 25 μl containing 7 nM RET, 3 μM peptide substrate FAM-P2 (GL Biochem 112394), and 23 μM ATP (Sigma A7699-1G). The assay started with loading RET diluted in kinase reaction buffer to wells, followed by addition of equal volume of 5× compounds for 15-min incubation at the room temperature for pre-treatment. The enzymatic reaction was initiated by addition of mixture of the substrate and ATP prepared in kinase reaction buffer. After incubation at 28° C. for one hour, 25 μl of stopper buffer (a mixture of 100 mM HEPES pH 7.5 buffer, 0.015% Brij-35, 50 mM EDTA and 0.2% of coating reagent 3 (Cliper Lifesciences)) and produce TR-FRET signals. After 30 minutes of incubation at room temperature, the plate was read in a Caliper with the following settings: Excitation 340 nm (30)/Emission1 495 nm (10)/Emission2 520 nm (25). The TR-FRET values were dimensionless numbers that were calculated as the ratio of the acceptor ([…]) signal to the donor (Terbium) signal. Percent of control was calculated as the percentage of compound-treated vs 1% DMSO vehicle-treated. The dose-response curves were generated and the IC50s were calculated by nonlinear sigmoid curve fitting using XLFit.

human KDR kinase = target: T2, human KDR kinase (Homo sapiens, UniProt P35968); test: KDR Kinase Assay (LanthaScreen TR-FRET enzymatic assay); format: biochemical; details: 1.2 nM KDR, 92 μM ATP
T2 construct: purchased Carna 08-191
T2 sequence (P35968 20-1356): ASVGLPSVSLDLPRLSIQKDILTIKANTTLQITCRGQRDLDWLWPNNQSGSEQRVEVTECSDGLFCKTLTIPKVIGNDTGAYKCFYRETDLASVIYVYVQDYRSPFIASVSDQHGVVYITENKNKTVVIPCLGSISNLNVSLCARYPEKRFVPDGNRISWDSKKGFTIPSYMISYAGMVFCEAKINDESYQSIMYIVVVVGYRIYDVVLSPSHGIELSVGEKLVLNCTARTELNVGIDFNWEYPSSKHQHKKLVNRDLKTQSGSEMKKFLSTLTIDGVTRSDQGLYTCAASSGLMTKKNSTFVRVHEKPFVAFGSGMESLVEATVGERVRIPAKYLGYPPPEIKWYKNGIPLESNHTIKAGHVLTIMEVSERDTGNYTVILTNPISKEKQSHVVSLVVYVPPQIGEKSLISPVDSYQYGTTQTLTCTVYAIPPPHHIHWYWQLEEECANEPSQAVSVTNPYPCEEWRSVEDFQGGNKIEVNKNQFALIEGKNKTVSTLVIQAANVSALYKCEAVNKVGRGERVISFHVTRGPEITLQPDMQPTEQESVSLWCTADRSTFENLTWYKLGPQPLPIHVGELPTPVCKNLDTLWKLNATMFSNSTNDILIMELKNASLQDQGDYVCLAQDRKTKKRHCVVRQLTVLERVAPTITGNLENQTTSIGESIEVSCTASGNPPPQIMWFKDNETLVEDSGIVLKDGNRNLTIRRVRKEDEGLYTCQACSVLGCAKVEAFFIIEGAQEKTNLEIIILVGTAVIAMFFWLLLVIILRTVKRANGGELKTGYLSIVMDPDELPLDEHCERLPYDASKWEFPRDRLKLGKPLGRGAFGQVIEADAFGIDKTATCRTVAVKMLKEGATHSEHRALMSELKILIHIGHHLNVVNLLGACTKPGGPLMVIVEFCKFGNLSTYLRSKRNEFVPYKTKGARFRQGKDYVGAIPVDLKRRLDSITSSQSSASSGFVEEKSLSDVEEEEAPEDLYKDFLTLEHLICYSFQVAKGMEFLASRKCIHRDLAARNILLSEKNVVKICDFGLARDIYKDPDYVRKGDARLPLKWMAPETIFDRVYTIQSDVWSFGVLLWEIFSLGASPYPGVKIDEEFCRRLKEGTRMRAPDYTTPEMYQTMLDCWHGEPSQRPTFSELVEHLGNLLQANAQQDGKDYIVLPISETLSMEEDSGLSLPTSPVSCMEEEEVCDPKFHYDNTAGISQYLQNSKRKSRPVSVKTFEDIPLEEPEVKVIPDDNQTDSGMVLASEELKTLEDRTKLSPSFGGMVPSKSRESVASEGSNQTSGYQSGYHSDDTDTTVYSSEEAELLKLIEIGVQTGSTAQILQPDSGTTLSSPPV
Procedure: Compounds were tested in a LanthaScreen™ time-resolved fluorescence energy transfer (TR-FRET) enzymatic assay from Invitrogen. The assay used human KDR kinase (Carna 08-191). Test compounds were prepared and diluted in DMSO in 3-fold serial dilutions to 50× of the final testing concentrations. The compounds were then further diluted to 5× by the kinase reaction buffer (50 mM HEPES pH 7.5, 0.0015% Brij-35). The enzymatic reaction for compound testing was performed in a white 384-well polypropylene plate (Corning 3573) with a total reaction volume of 25 μl containing 1.2 nM KDR, 3 μM peptide substrate FAM-P22 (GL Biochem 112393), and 92 μM ATP (Sigma A7699-1G). The assay started with loading RET diluted in kinase reaction buffer to wells, followed by addition of equal volume of 5× compounds for 15-min incubation at the room temperature for pre-treatment. The enzymatic reaction was initiated by addition of mixture of the substrate and ATP prepared in kinase reaction buffer. After incubation at 28° C. for one hour, 25 μl of stopper buffer (a mixture of 100 mM HEPES pH 7.5 buffer, 0.015% Brij-35, 50 mM EDTA and 0.2% of coating reagent 3 (Cliper Lifesciences)) and produce TR-FRET signals. After 30 minutes of incubation at room temperature, the plate was read in a Caliper with the following settings: Excitation 340 nm (30)/Emission1 495 nm (10)/Emission2 520 nm (25). The TR-FRET values were dimensionless numbers that were calculated as the ratio of the acceptor ([…]) signal to the donor (Terbium) signal. Percent of control was calculated as the percentage of compound-treated vs 1% DMSO vehicle-treated. The dose-response curves were generated and the IC50s were calculated by nonlinear sigmoid curve fitting using XLFit.

T1 sequence (P07949 29-1114): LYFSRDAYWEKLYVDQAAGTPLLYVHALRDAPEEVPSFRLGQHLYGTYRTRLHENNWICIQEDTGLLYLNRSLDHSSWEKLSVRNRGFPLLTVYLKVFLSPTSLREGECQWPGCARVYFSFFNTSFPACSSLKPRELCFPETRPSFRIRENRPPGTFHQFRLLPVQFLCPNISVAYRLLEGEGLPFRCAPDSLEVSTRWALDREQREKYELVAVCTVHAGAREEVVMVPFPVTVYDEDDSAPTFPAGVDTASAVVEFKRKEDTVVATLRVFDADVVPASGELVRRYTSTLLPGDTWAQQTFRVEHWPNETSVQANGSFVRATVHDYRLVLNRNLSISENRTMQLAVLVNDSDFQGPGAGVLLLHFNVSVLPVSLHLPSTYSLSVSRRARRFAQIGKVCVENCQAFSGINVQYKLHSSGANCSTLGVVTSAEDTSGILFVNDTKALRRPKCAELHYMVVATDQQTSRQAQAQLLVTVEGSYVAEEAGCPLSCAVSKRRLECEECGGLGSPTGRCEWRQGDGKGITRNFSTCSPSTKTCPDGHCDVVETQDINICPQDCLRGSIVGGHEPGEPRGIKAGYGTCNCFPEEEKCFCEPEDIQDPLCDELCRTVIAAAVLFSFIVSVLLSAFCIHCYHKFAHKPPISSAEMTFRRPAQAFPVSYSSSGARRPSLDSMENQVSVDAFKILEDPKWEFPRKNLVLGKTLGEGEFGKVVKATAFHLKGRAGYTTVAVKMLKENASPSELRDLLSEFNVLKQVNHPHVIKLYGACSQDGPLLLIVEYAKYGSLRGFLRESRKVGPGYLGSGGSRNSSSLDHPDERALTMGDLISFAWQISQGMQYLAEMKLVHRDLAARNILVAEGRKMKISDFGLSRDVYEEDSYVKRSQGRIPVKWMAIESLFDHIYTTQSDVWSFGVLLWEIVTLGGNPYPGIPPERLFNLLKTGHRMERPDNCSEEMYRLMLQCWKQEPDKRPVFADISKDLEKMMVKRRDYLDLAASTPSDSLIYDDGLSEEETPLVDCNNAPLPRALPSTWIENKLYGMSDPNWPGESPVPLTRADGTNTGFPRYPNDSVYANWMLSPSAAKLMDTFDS

| Compound | IC50 (human RET kinase) [nM] | IC50 (human KDR kinase) [nM] |
| --- | --- | --- |
| CCOc1cc(-c2ccc(N3C4CC5CC3CC(C(=O)Nc3ccc(OC)nc3)(C5)C4)nc2)c2c(C#N)cnn2c1 [Example 134, (1R3S,5s,7s)-2-(5-(3-cyano-6-ethoxypyrazolo[1,5-a]pyridin-4-yl)pyridin-2-yl)-N-(6-methoxypyridin-3-yl)-2-azaadamantane-5-carboxamide] | ≤ 10 | – |
| COc1ccc(C(=O)N[C@]2(C)C[C@H]3CN(c4ccc(-c5cc(-c6ccn(C)n6)cn6ncc(C#N)c56)cn4)C[C@H]3C2)cn1 [Example 122, N-((3aR,5s,6aS)-2-(5-(3-cyano-6-(1-methyl-1H-pyrazol-3-yl)pyrazolo[1,5-a]pyridin-4-yl)pyridin-2-yl)-5-methyloctahydrocyclopenta[c]pyrrol-5-yl)-6-methoxynicotinamide] | ≤ 10 | 10 to 50 |
| COc1ccc(NC(=O)C23CC4CC(C2)N(c2cnc(-c5cc(-c6cnn(C)c6)cn6ncc(C#N)c56)cn2)C(C4)C3)cn1 [Example 114, (1R,3S,5s,7s)-2-(5-(3-cyano-6-(1-methyl-1H-pyrazol-4-yl)pyrazolo[1,5-a]pyridin-4-yl)pyrazin-2-yl)-N-(6-methoxypyridin-3-yl)-2-azaadamantane-5-carboxamide] | ≤ 10 | – |
| COc1ccc(NC(=O)[C@H]2[C@@H]3CN(c4ccc(-c5cc(OCC(C)(C)O)cn6ncc(C#N)c56)cn4)C[C@@H]32)cn1 [Example 175, (1R,5S,6r)-3-(5-(3-cyano-6-(2-hydroxy-2-methylpropoxy)pyrazolo[1,5-a]pyridin-4-yl)pyridin-2-yl)-N-(6-methoxypyridin-3-yl)-3-azabicyclo[3.1.0]hexane-6-carboxamide] | ≤ 10 | – |

More lines, now with the values ahead:

| IC50 (human RET kinase) [nM] | IC50 (human KDR kinase) [nM] | Compound |
| --- | --- | --- |
| ≤ 10 | ≤ 10 | Cn1cc(-c2cc(-c3ccc(N4C[C@@H]5[C@@H](CNC(=O)c6c(F)cccc6Cl)[C@@H]5C4)nc3)c3c(C#N)cnn3c2)cn1 [Example 187, 2-chloro-N-(((1R,5S,6s)-3-(5-(3-cyano-6-(1-methyl-1H-pyrazol-4-yl)pyrazolo[1,5-a]pyridin-4-yl)pyridin-2-yl)-3-azabicyclo[3.1.0]hexan-6-yl)methyl)-6-fluorobenzamide] |
| ≤ 10 | > 100 | CC(=O)NC12CC3CC(C1)N(c1ccc(-c4cc(OCC(C)(C)O)cn5ncc(C#N)c45)cn1)C(C3)C2 [Example 130, N-((1R,3S,5s,7s)-2-(5-(3-cyano-6-(2-hydroxy-2-methylpropoxy)pyrazolo[1,5-a]pyridin-4-yl)pyridin-2-yl)-2-azaadamantan-5-yl)acetamide] |
